From patent US20220089575A1, “FARNESOID X RECEPTOR AGONISTS AND USES THEREOF” (Metacrine, Inc., priority 2017, published 2022)
pEC50: −log10 of the molar value.

What follows are compounds tested against T1, hFXR (Homo sapiens, UniProt Q96RI1) (assay: In Vitro FXR Assay (TK): TK-ECRE-luc reporter in transfected CV-1 cells). Conditions: 18 hrs, luminescence, maximum efficacy of <25% of the Fexarmine control classified as '+'.
T1 construct: expressed in transfected cells; host or cells: CV-1 cells
T1 sequence (Q96RI1 1-486): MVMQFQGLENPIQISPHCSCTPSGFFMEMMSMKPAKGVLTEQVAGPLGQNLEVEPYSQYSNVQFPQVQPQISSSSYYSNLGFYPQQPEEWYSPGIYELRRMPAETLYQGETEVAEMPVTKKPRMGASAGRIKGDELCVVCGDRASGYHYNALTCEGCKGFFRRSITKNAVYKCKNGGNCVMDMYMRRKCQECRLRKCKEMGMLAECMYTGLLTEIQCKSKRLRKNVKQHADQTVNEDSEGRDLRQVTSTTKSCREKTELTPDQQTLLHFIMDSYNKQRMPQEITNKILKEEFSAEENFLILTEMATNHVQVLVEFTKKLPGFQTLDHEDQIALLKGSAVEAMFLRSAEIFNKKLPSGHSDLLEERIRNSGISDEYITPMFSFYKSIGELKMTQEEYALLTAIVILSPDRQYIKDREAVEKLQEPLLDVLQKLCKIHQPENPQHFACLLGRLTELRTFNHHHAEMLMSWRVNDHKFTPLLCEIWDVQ
T1 sequence (P19793 1-462 partner): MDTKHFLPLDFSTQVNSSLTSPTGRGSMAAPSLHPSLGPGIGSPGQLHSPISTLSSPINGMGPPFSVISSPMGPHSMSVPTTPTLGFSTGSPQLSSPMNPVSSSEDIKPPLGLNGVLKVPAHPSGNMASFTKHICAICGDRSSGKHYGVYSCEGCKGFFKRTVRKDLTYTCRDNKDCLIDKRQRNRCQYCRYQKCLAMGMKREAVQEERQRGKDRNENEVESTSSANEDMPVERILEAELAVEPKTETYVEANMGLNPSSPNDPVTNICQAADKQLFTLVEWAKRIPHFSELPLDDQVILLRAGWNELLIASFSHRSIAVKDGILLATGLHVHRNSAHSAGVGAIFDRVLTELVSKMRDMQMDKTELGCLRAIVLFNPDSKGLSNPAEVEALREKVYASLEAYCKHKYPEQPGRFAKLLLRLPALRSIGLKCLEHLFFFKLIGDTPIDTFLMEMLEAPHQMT
Type: cell-based
Method in brief: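 Luciferase read-out after 18 h compound exposure of CV-1 cells carrying transfected hFXR plus hRXR expression plasmids, TK-ECRE-luc reporter and pCMX-YFP. Cells cultured in charcoal-stripped FBS before transfection; compounds serially diluted in DMSO.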
Work on `COc1ccc([C@H]2CC[C@H](CN(c3cc(-c4cnc(C5CC5)s4)ccn3)C(=O)[C@H]3CC[C@H](OC(=O)N4CC(O)C4)CC3)CC2)nc1C#N` [Compound 7.10, trans-4-(((trans-4-(6-Cyano-5-methoxypyridin-2-yl)cyclohexyl)methyl)(4-(2-cyclopropylthiazol-5-yl)pyridin-2-yl)carbamoyl)cyclohexyl 3-hydroxyazetidine-1-carboxylate] yielded a pEC50 of at least 6.60.
`COc1ccc([C@H]2CC[C@H](CN(c3cccc(-c4cnc(C5CC5)s4)c3)C(=O)[C@H]3CC[C@H](OC(=O)N4CC(O)C4)CC3)CC2)nc1C` [Compound 7.11, trans-4-((3-(2-Cyclopropylthiazol-5-yl)phenyl)((trans-4-(5-methoxy-6-methylpyridin-2-yl)cyclohexyl)methyl)carbamoyl)cyclohexyl 3-hydroxyazetidine-1-carboxylate] showed a pEC50 of at least 6.60.
In the case of `COc1ccc(C23CCC(CN(c4cccc(-c5cnn(C6CC6)c5)c4)C(=O)[C@H]4CC[C@H](OC(=O)N5CC(O)C5)CC4)(CC2)CC3)cc1C` [Compound 7.12, 4-((3-(1-Cyclopropyl-1H-pyrazol-4-yl)phenyl)((4-(4-methoxy-3-methylphenyl)bicyclo[2.2.2]octan-1-yl)methyl)carbamoyl)cyclohexyl trans-3-hydroxyazetidine-1-carboxylate], the pEC50 was at least 6.60.
For `CN(C)c1ccc([C@H]2CC[C@H](CN(c3cccc(-c4cnn(C5CC5)c4)c3)C(=O)[C@H]3CC[C@H](OC(=O)N4CC(O)C4)CC3)CC2)cn1` [Compound 7.13, trans-4-((3-(1-Cyclopropyl-1H-pyrazol-4-yl)phenyl)((trans-4-(6-(dimethylamino)pyridin-3-yl)cyclohexyl)methyl)carbamoyl) cyclohexyl 3-hydroxyazetidine-1-carboxylate], the pEC50 was at least 6.60.
Work on `COc1ccc([C@H]2CC[C@H](CN(c3cccc(-c4cnn(C(C)C)c4)c3)C(=O)[C@H]3CC[C@H](OC(=O)N4CC(O)C4)CC3)CC2)cc1C` [Compound 7.14, trans-4-((3-(1-Isopropyl-1H-pyrazol-4-yl)phenyl)((trans-4-(4-methoxy-3-methylphenyl)cyclohexyl)methyl)carbamoyl)cyclohexyl 3-hydroxyazetidine-1-carboxylate] yielded a pEC50 of at least 6.60.
`COc1ccc([C@H]2CC[C@H](CN(c3cccc(-c4cnn(C(C)C)c4)c3)C(=O)[C@H]3CC[C@H](OC(=O)N4CC(O)C4)CC3)CC2)nc1C` [Compound 7.15, trans-4-((3-(1-Isopropyl-1H-pyrazol-4-yl)phenyl)((trans-4-(5-methoxy-6-methylpyridin-2-yl)cyclohexyl)methyl)carbamoyl)cyclohexyl 3-hydroxyazetidine-1-carboxylate] was tested, and the pEC50 was at least 6.60.
`COc1ccc([C@H]2CC[C@H](CN(c3cc(-c4cnn(C(C)C)c4)ccn3)C(=O)[C@H]3CC[C@H](OC(=O)N4CC(O)C4)CC3)CC2)cc1C` [Compound 7.16, trans-4-((4-(1-Isopropyl-1H-pyrazol-4-yl)pyridin-2-yl)((trans-4-(4-methoxy-3-methylphenyl)cyclohexyl)methyl)carbamoyl)cyclohexyl 3-hydroxyazetidine-1-carboxylate] was tested, and the pEC50 was at least 6.60.
`COC(=O)CNC(=O)O[C@H]1CC[C@H](C(=O)N(C[C@H]2CC[C@H](c3ccc(OC)c(C)c3)CC2)c2cccc(-c3cnn(C4CC4)c3)c2)CC1` [Compound 7.17, Methyl 2-((((trans-4-((3-(1-cyclopropyl-1H-pyrazol-4-yl)phenyl)((trans-4-(4-methoxy-3-methylphenyl)cyclohexyl)methyl)carbamoyl)cyclohexyl)oxy)carbonyl)amino)acetate] showed a pEC50 of at least 6.60.
`COc1ccc([C@H]2CC[C@H](CN(c3cccc(-c4cnn(C5CC5)c4)c3)C(=O)[C@H]3CC[C@H](OC(=O)NCC(=O)O)CC3)CC2)cc1C` [Compound 7.18, 2-((((trans-4-((3-(1-Cyclopropyl-1H-pyrazol-4-yl)phenyl)((trans-4-(4-methoxy-3-methylphenyl)cyclohexyl)methyl)carbamoyl)cyclohexyl)oxy)carbonyl)amino)acetic acid] was tested, and the pEC50 was at least 6.60.
`COc1ccc([C@H]2CC[C@H](CN(c3cccc(-c4cnn(C5CC5)c4)c3)C(=O)[C@H]3CC[C@H](OC(=O)N4CC(O)C4)CC3)CC2)cc1C#N` [Compound 7.19, trans-4-(((trans-4-(3-Cyano-4-methoxyphenyl)cyclohexyl)methyl)(3-(1-cyclopropyl-1H-pyrazol-4-yl)phenyl)carbamoyl)cyclohexyl 3-hydroxyazetidine-1-carboxylate] was tested, and the pEC50 was at least 6.60.
In the case of `COc1ccc([C@H]2CC[C@H](CN(c3cccc(-c4cnn(C(C)C)c4)c3)C(=O)[C@H]3CC[C@H](OC(=O)N4CC(O)C4)CC3)CC2)cc1C#N` [Compound 7.20, trans-4-(((trans-4-(3-Cyano-4-methoxyphenyl)cyclohexyl)methyl)(3-(1-isopropyl-1H-pyrazol-4-yl)phenyl)carbamoyl)cyclohexyl 3-hydroxyazetidine-1-carboxylate], the pEC50 was at least 6.60.
With `COc1ccc([C@H]2CC[C@H](CN(c3cc(-c4cnn(C5CC5)c4)ccn3)C(=O)[C@H]3CC[C@H](OC(=O)N4CC(O)C4)CC3)CC2)cc1C#N` [Compound 7.21, trans-4-(((trans-4-(3-Cyano-4-methoxyphenyl)cyclohexyl)methyl)(4-(1-cyclopropyl-1H-pyrazol-4-yl)pyridin-2-yl)carbamoyl)cyclohexyl 3-hydroxyazetidine-1-carboxylate] the pEC50 was at least 6.60.
`COc1ccc([C@H]2CC[C@H](CN(c3cc(-c4cnn(C(C)C)c4)ccn3)C(=O)[C@H]3CC[C@H](OC(=O)N4CC(O)C4)CC3)CC2)cc1C#N` [Compound 7.22, trans-4-(((trans-4-(3-Cyano-4-methoxyphenyl)cyclohexyl)methyl)(4-(1-isopropyl-1H-pyrazol-4-yl)pyridin-2-yl)carbamoyl)cyclohexyl 3-hydroxyazetidine-1-carboxylate] gave a pEC50 of at least 6.60.
Work on `COc1ncc([C@H]2CC[C@H](CN(c3cccc(-c4cnn(C5CC5)c4)c3)C(=O)[C@H]3CC[C@H](OC(=O)N4CC(O)C4)CC3)CC2)cc1Cl` [Compound 7.23, trans-4-(((trans-4-(5-Chloro-6-methoxypyridin-3-yl)cyclohexyl)methyl)(3-(1-cyclopropyl-1H-pyrazol-4-yl)phenyl)carbamoyl) cyclohexyl 3-hydroxyazetidine-1-carboxylate] yielded a pEC50 of at least 6.60.
`COc1ccc([C@H]2CC[C@H](CN(c3cc(-c4cnn(C5CC5)c4)ccn3)C(=O)[C@H]3CC[C@H](OC(=O)N4CC(O)C4)CC3)CC2)nc1C` [Compound 7.24, trans-4-((4-(1-Cyclopropyl-1H-pyrazol-4-yl)pyridin-2-yl)((trans-4-(5-methoxy-6-methylpyridin-2-yl)cyclohexyl)methyl)carbamoyl)cyclohexyl 3-hydroxyazetidine-1-carboxylate] was tested, and the pEC50 was at least 6.60.
Compound `COc1ncc([C@H]2CC[C@H](CN(c3cccc(-c4cnn(C5CC5)c4)c3)C(=O)[C@H]3CC[C@H](OC(=O)N4CC(O)C4)CC3)CC2)cc1C` [Compound 7.25, trans-4-((3-(1-Cyclopropyl-1H-pyrazol-4-yl)phenyl)((trans-4-(6-methoxy-5-methylpyridin-3-yl)cyclohexyl)methyl)carbamoyl)cyclohexyl 3-hydroxyazetidine-1-carboxylate] has a pEC50 of at least 6.60.
